In US6355633B1, “Aryl sulfonic acids and derivatives as FSH antagonists” (American Home Products Corporation, priority 1999, dated 2002):

biological target: T1, FSH receptor (Homo sapiens, UniProt P23945); test: FSH Receptor Radioligand Membrane Binding Standard Pharmacological Test Procedure; set-up: expressed in transfected cells; conditions: [125I]FSH binding to membranes of CHO cells stably transfected with the human FSH receptor
T1 sequence (P23945 18-695): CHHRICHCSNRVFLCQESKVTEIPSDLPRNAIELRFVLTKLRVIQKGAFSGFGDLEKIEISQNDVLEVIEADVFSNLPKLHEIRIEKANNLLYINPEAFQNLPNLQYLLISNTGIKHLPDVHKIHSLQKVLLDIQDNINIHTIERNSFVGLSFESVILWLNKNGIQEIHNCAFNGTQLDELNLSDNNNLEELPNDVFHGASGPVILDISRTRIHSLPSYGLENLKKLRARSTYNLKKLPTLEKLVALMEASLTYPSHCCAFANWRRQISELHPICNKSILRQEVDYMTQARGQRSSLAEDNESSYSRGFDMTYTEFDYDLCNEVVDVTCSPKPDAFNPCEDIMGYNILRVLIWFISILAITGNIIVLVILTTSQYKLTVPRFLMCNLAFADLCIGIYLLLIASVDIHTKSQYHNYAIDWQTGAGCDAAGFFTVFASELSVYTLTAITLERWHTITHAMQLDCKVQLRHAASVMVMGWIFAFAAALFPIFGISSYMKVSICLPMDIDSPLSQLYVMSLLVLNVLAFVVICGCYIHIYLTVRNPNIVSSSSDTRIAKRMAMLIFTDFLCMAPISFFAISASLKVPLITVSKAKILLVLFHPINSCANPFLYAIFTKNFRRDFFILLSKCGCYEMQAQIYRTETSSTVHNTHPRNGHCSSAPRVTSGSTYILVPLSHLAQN
Procedure, shortened: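 Membranes from CHO cells stably expressing human FSH receptor; compounds pre-incubated 15 min at room temperature, then [125I]FSH added (diluted to 200 pM before addition) for 2 h at room temperature in pH 7.2 Tris buffer with protease inhibitors and BSA. Bound radioactivity after filtration counted by gamma counter; non-specific binding defined with unlabelled human FSH.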

Row | Molecule | IC50 [nM]
1 | COc1ccc(C(=O)Nc2ccc(/C=C/c3ccc(NC(=O)c4ccc(OC)c(S(=O)(=O)N5CCS(=O)(=O)CC5)c4)cc3S(=O)(=O)O)c(S(=O)(=O)O)c2)cc1S(=O)(=O)N1CCS(=O)(=O)CC1 [Example 30k, 2,2′-[(E)-1,2-Ethenediyl]bis[5-[[3-[(1,1-dioxido-4-thiomorpholinyl)sulfonyl]-4-methoxybenzoyl]amino]benzenesulfonic Acid]] | 2000
2 | COCCOCCOc1ccc(C(=O)Nc2ccc(/C=C/c3ccc(NC(=O)c4ccc(OCCOCCOC)c(S(=O)(=O)N5CCOCC5)c4)cc3S(=O)(=O)O)c(S(=O)(=O)O)c2)cc1S(=O)(=O)N1CCOCC1 [Example 30a, 2,2′-[(E)-1,2-Ethenediyl]bis[5-[[4-[2-(2-methoxyethoxy)ethoxy]-3-(4-morpholinylsulfonyl)benzoyl]amino]benzenesulfonic Acid]] | 1600
3 | COc1ccc(C(=O)Nc2ccc(/C=C/c3ccc(NC(=O)c4ccc(OC)c(S(=O)(=O)N5CCCC5)c4)cc3S(=O)(=O)O)c(S(=O)(=O)O)c2)cc1S(=O)(=O)N1CCCC1 [Example 33e, 2,2′-[(E)-1,2-Ethenediyl]bis[5-[[4-methoxy-3-(1-pyrrolidinylsulfonyl)benzoyl]amino]benzenesulfonic Acid]] | 4300
4 | COCCOc1ccc(C(=O)Nc2ccc(/C=C/c3ccc(NC(=O)c4ccc(OCCOC)c(S(=O)(=O)N5CCOCC5)c4)cc3S(=O)(=O)O)c(S(=O)(=O)O)c2)cc1S(=O)(=O)N1CCOCC1 [Example 30t, 2,2′-[(E)-1,2-Ethenediyl]bis[5-[[4-(2-methoxyethoxy)-3-(4-morpholinylsulfony)benzoyl]amino]benzenesulfonic Acid]] | 1300
5 | CS(=O)(=O)c1ccc(C(=O)Nc2ccc(/C=C/c3ccc(NC(=O)c4ccc(S(C)(=O)=O)c(S(=O)(=O)N5CCOCC5)c4)cc3S(=O)(=O)O)c(S(=O)(=O)O)c2)cc1S(=O)(=O)N1CCOCC1 [Example 30d, 2,2′-[(E)-1,2-Ethenediyl]bis[5-[[4-(methylsulfonyl)-3-(4-morpholinylsulfonyl)benzoyl]amino]benzenesulfonic Acid]] | 1500
6 | CS(=O)(=O)c1ccc(C(=O)Nc2ccc(/C=C/c3ccc(NC(=O)c4ccc(S(C)(=O)=O)cc4)cc3S(=O)(=O)O)c(S(=O)(=O)O)c2)cc1 [Example 30q, 2,2′-[(E)-1,2-Ethenediyl]bis[5-[[4-(methylsulfonyl)benzoyl]amino]benzenesulfonic Acid]] | 4000
7 | COc1ccc(C(=O)Nc2ccc(/C=C/c3ccc(NC(=O)c4ccc(OC)c(S(=O)(=O)N5CCN(C=O)CC5)c4)cc3S(=O)(=O)O)c(S(=O)(=O)O)c2)cc1S(=O)(=O)N1CCN(C=O)CC1 [Example 34b, 2,2′-[(E)-1,2-Ethenediyl]bis[5-[[3-[(4-formyl-1-piperazinyl)sulfonyl]-4-methoxybenzoyl]amino]benzenesulfonic Acid]] | 1600
8 | COc1ccc(C(=O)Nc2ccc(/C=C/c3ccc(NC(=O)c4ccc(OC)c(S(=O)(=O)N5CCSCC5)c4)cc3S(=O)(=O)O)c(S(=O)(=O)O)c2)cc1S(=O)(=O)N1CCSCC1 [Example 33d, 2,2′-[(E)-1,2-Ethenediyl]bis[5-[[4-methoxy-3-(4-thiomorpholinylsulfonyl)benzoyl]amino]benzenesulfonic Acid]] | 5200
9 | COc1ccc(C(=O)Nc2ccc(/C=C/c3ccc(NC(=O)c4ccc(S(C)(=O)=O)cc4)cc3S(=O)(=O)O)c(S(=O)(=O)O)c2)cc1S(=O)(=O)N1CCOCC1 [Example 30g] | 1600
10 | COc1ccc(C(=O)Nc2ccc(CCc3ccc(NC(=O)c4ccc(S(C)(=O)=O)cc4)cc3S(=O)(=O)O)c(S(=O)(=O)O)c2)cc1S(=O)(=O)N1CCOCC1 [Example 43a, 5-[[4-Methoxy-3-(4-morpholinylsulfonyl)benzoyl]amino]-2-[2-[4-[[4-(methylsulfonyl)benzoyl]amino]-2-sulfophenyl]ethyl]benzenesulfonic Acid] | 2000
11 | COCCNS(=O)(=O)c1cc(C(=O)Nc2ccc(/C=C/c3ccc(NC(=O)c4ccc(S(C)(=O)=O)c([N+](=O)[O-])c4)cc3S(=O)(=O)O)c(S(=O)(=O)O)c2)ccc1OC [Example 30f] | 1900
12 | CSc1ccc(C(=O)Nc2ccc(/C=C/c3ccc(NC(=O)c4ccc(S(C)(=O)=O)c([N+](=O)[O-])c4)cc3S(=O)(=O)O)c(S(=O)(=O)O)c2)cc1S(=O)(=O)N1CCOCC1 [Example 30e] | 2500
13 | CCS(=O)(=O)c1ccc(C(=O)Nc2ccc(/C=C/c3ccc(NC(=O)c4ccc(S(=O)(=O)CC)cc4)cc3S(=O)(=O)O)c(S(=O)(=O)O)c2)cc1 [Example 32f, 2,2′-[(E)-1,2-Ethenediyl]bis[5-[[4-(ethylsulfonyl)benzoyl]amino]benzenesulfonic Acid]] | 2900
14 | COc1ccc(C(=O)Nc2ccc(/C=C/c3ccc(NC(=O)c4ccc(OC)c(S(=O)(=O)N5CCOCC5)c4)cc3S(=O)(=O)O)c(S(=O)(=O)O)c2)cc1S(=O)(=O)N1CCOCC1 [Example 30s, 2,2′-[(E)-1,2-Ethenediyl]bis[5-[[4-methoxy-3-(4-morpholinylsulfonyl)benzoyl]amino]benzenesulfonic Acid]] | 3000
15 | COc1ccc(C(=O)Nc2ccc(/C=C/c3ccc(NC(=O)c4ccc(OC)c(S(=O)(=O)N5CCN(C(C)=O)CC5)c4)cc3S(=O)(=O)O)c(S(=O)(=O)O)c2)cc1S(=O)(=O)N1CCN(C(C)=O)CC1 [Example 34a, 2,2′-[(E)-1,2-Ethenediyl]bis[5-[[3-[(4-acetyl-1-piperazinyl)sulfonyl]-4-methoxybenzoyl]amino]benzenesulfonic Acid]] | 3800
16 | CS(=O)(=O)c1ccc(C(=O)Nc2ccc(/C=C/c3ccc(NC(=O)c4ccc(S(C)(=O)=O)c([N+](=O)[O-])c4)cc3S(=O)(=O)O)c(S(=O)(=O)O)c2)cc1[N+](=O)[O-] [Example 30c, 2.2′-[(E)-1,2-Ethenediyl]bis[5-[[(4-methylsulfonyl)-3-(nitro)-benzoyl]amino]benzenesulfonic Acid]] | 1600
17 | O=C(Nc1ccc(/C=C/c2ccc(NC(=O)c3ccc(OC4CCOCC4)c(S(=O)(=O)N4CCOCC4)c3)cc2S(=O)(=O)O)c(S(=O)(=O)O)c1)c1ccc(OC2CCOCC2)c(S(=O)(=O)N2CCOCC2)c1 [Example 30r, 2,2′-[(E)-1,2-Ethenediyl]bis[5-[[3-(4-morpholinylsulfonyl)-4-[(tetrahydro-2H-pyran-4-yl)oxy]benzoyl]amino]benzenesulfonic Acid]] | 1100
18 | 2,2′-[(E)-1,2-Ethenediyl]bis[5-[[4-(methylthio)-3-(4-morpholinylsulfonyl)benzoyl]amino]benzenesulfonic Acid] [Example 30b] | 1200
19 | COCCNS(=O)(=O)c1cc(C(=O)Nc2ccc(/C=C/c3ccc(NC(=O)c4ccc(OC)c(S(=O)(=O)NCCOC)c4)cc3S(=O)(=O)O)c(S(=O)(=O)O)c2)ccc1OC [Example 30m, 2,2′-[(E)-1,2-Ethenediyl]bis[5-[[4-methoxy-3-[[(2-methoxyethyl)amino]sulfonyl]benzoyl]amino]benzenesulfonic Acid]] | 2200
